Laboratory results from patent US20090030086A1, “ANTIMICROBIAL AGENTS” (priority 2005, published 2009).
Converted amounts (≈) assume the structure as drawn. Read-outs that look alike come from different tables or passages of the source. Each block holds one molecule with its values, some of them ahead of it.

Tests used:
S. aureus ATCC 29213 [1] = test: MIC assay; type: cell-based, Staphylococcus aureus
Procedure: 1. Staphylococcus aureus—the principal staphylococcal test micro-organism used in these studies was Staphylococcus aureus ATCC 29213. This strain is the one recommended for QC/QA purposes in Minimum Inhibitory Concentration (MIC) assays by the US Clinical and Laboratory Standards Institute (formerly the NCCLS), an FDA-recognised body.
(§1) The staphylococci and enterococci were cultured and maintained on Mueller-Hinton Medium (agar and broth) at pH 7.2; they were incubated aerobically at 37° C. for 24 hours.
(§2) This is a standard international method for quantitatively assessing the antimicrobial activity of a compound in a liquid medium. The method used a 96-well microtitre plate, capable of holding about 200 μl of liquid per well. […] The culture media were as described above for the relevant test organisms.
(§3) The wells were inoculated with a liquid suspension of freshly grown micro-organism and incubated under the conditions described above. After incubation, the microtitre plate was examined visually (with the aid of a light box) for cloudiness in each well, which would indicate microbial growth. The MIC value was recorded as the lowest concentration of test compound required to inhibit microbial growth, i.e., the lowest concentration for which the liquid in the well remained clear.
(§4) The assays were conducted in duplicate and included both negative (culture medium only) and positive (culture medium, diluting solvent and inoculum) controls.
(§5) The following experiments all used S. aureus ATCC 29213 as the test organism. MIC, MBC and DDA assays, as described above, were carried out using a range of different benzoquinones and hydroquinones. Supplemented DDA assays, in the presence of salt, lipid and blood, were also conducted.

S. aureus ATCC 29213 [2] = test: MBC assay; type: cell-based, Staphylococcus aureus
Procedure: as §1
(§6) This assay, normally carried out after an MIC assay, determines the minimum concentration of a compound that is lethal to the micro-organism being tested.
(§7) These samples were then individually sub-cultured on non-selective agar medium, under the incubation conditions described above. Following incubation they were examined visually for bacterial growth.
as §5

S. aureus ATCC 29213 [3] = test: Disc diffusion assay (DDA); type: cell-based, Staphylococcus aureus; settings: for zone of inhibition at 200 µg/disc: Staphylococcus aureus
Procedure: as §1
(§8) A sterile paper disc was impregnated with a sample of the test compound and a minimum of 30 minutes allowed for the solvents to evaporate as far as possible. The disc was then placed on an agar plate onto which the test micro-organism had been inoculated. The plate was then incubated under the conditions described above, following which it was examined visually for signs of bacterial growth. […] The diameter of this zone of “inhibition” was measured using a ProtoCOL™ automated zone sizer (Synbiosis, Cambridge, UK).
(§9) The area of the zone of inhibition was calculated from the measured zone diameter (D) using the formula π(D/2)^2.
(§10) For most DDA assays, 200 μg of each compound was loaded onto each disc.

S. aureus ATCC 29213 [4] = test: Supplemented disc diffusion assay; type: cell-based, Staphylococcus aureus; settings: for zone of inhibition at 200 µg/disc: Staphylococcus aureus, ATCC29213, 24 h
Procedure: as §1, §8
(§11) Performance under these conditions can provide a more reliable indication of activity on topical application. For assays conducted using S. aureus strains, the supplements were defibrinated horse blood (5% v/v), lipid (Tween™ 80 at 1% v/v) and sodium chloride (100 mM). For those using Propionibacterium spp. strains, the supplements were lipid (Tween™ 80 at 1% v/v) and sodium chloride (100 mM).
as §5, §10

P. acnes NCTC 737 [5] = test: MIC assay; type: cell-based, Propionibacterium acnes
Procedure: 2. Propionibacterium spp.—the principal propionibacterial strain used in these studies was Propionibacterium acnes NCTC 737.
(§12) The Propionibacterium spp organisms were cultured and maintained on Wilkins-Chalgren Anaerobe Medium (agar and broth) at pH 6.0; cultures were incubated anaerobically at 37° C. for 72 hours.
as §2, §3, §4
(§13) MIC, MBC and DDA assays, as described above, were carried out using a range of different benzoquinones and hydroquinones. Supplemented DDA assays, in the presence of salt and lipid, were also conducted.

P. acnes NCTC 737 [6] = test: MBC assay; type: cell-based, Propionibacterium acnes
Procedure: as §12, §6, §7, §13

P. acnes NCTC 737 [7] = test: Disc diffusion assay (DDA); type: cell-based, Propionibacterium acnes; settings: for zone of inhibition at 200 µg/disc: Cutibacterium acnes
Procedure: as §12, §8, §9, §10

P. acnes NCTC 737 [8] = test: Supplemented disc diffusion assay; type: cell-based, Propionibacterium acnes; settings: for zone of inhibition at 200 µg/disc: Cutibacterium acnes, NCTC737, 72 h
Procedure: as §12, §8, §11, §13, §10

[9] = S. aureus ATCC 29213, Mueller-Hinton broth pH 7.2, aerobic, 37° C., 24 hours
[10] = S. aureus ATCC 29213, unsupplemented agar, 200 μg per disc (thymoquinone 50 μg, 2,6-dimethoxy-p-benzoquinone 100 μg)
[11] = P. acnes NCTC 737, Wilkins-Chalgren broth pH 6.0, anaerobic, 37° C., 72 hours
[12] = P. acnes NCTC 737, unsupplemented agar, 200 μg per disc (2,6-dimethoxy-p-benzoquinone 100 μg)
[13] = P. acnes NCTC 737, Tween 80 at 1% v/v, 200 μg per disc (2,6-dimethoxy-p-benzoquinone 100 μg)

- MIC (S. aureus ATCC 29213 [1]; [9]): 15.6 µg/mL (≈ 107 µM)
- MIC/MBC ratio (S. aureus ATCC 29213 [2]): 1
- MIC (P. acnes NCTC 737 [5]; [11]): 7.8 µg/mL (≈ 53.4 µM)
- MIC/MBC ratio (P. acnes NCTC 737 [6]; P. acnes NCTC 737): 0.25
SMILES: Oc1ccc(O)c(F)c1F [2,3-difluoro-p-hydroquinone]
- MBC (S. aureus ATCC 29213 [2]): 15.6 µg/mL (≈ 107 µM)
- DDA (diameter of zone of inhibition) (S. aureus ATCC 29213 [3]; [10]): 15.77 mm
- DDA + lipid (S. aureus ATCC 29213 [4]; S. aureus ATCC 29213, Tween 80 at 1% v/v, 200 μg per disc (thymoquinone 50 μg, 2,6-dimethoxy-p-benzoquinone 100 μg)): 14.63 mm
- DDA + blood (S. aureus ATCC 29213 [4]; S. aureus ATCC 29213, defibrinated horse blood 5% v/v, 200 μg per disc (thymoquinone 50 μg, 2,6-dimethoxy-p-benzoquinone 100 μg)): 10.27 mm
- DDA + salt (S. aureus ATCC 29213 [4]; S. aureus ATCC 29213, sodium chloride 100 mM, 200 μg per disc (thymoquinone 50 μg, 2,6-dimethoxy-p-benzoquinone 100 μg)): 15.56 mm
- MBC (P. acnes NCTC 737 [6]; P. acnes NCTC 737): 31.25 µg/mL (≈ 214 µM)
- DDA (diameter of zone of inhibition) (P. acnes NCTC 737 [7]; [12]): 0.0 mm
- DDA + lipid (P. acnes NCTC 737 [8]; [13]): 0.0 mm
- DDA + salt (P. acnes NCTC 737 [8]; P. acnes NCTC 737, sodium chloride 100 mM, 200 μg per disc (2,6-dimethoxy-p-benzoquinone 100 μg)): 0.0 mm

- MIC (S. aureus ATCC 29213 [1]; [9]): 7.8 µg/mL (≈ 56.5 µM)
- MIC/MBC ratio (S. aureus ATCC 29213 [2]): 0.5
- MIC (P. acnes NCTC 737 [5]; [11]): 7.8 µg/mL (≈ 56.5 µM)
- MIC/MBC ratio (P. acnes NCTC 737 [6]; P. acnes NCTC 737): 0.25
SMILES: CCc1cc(O)ccc1O [2-ethyl-p-hydroquinone]
- DDA (diameter of zone of inhibition) (S. aureus ATCC 29213 [3]; [10]): 21.06 mm
- DDA (diameter of zone of inhibition) (P. acnes NCTC 737 [7]; [12]): 9.90 mm
- DDA + lipid (P. acnes NCTC 737 [8]; [13]): 0.0 mm

- MIC (S. aureus ATCC 29213 [1]; Staphylococcus aureus, ATCC29213, S. aureus ATCC 29213, Mueller-Hinton broth pH 7.2, aerobic, 37° C., 24 hours, read-out: MIC): 7.8 µg/mL (≈ 35.1 µM)
- MIC/MBC ratio (S. aureus ATCC 29213 [2]): 1
- MIC (P. acnes NCTC 737 [5]; Cutibacterium acnes, NCTC737, P. acnes NCTC 737, Wilkins-Chalgren broth pH 6.0, anaerobic, 37° C., 72 hours, read-out: MIC): 7.8 µg/mL (≈ 35.1 µM)
- MIC/MBC ratio (P. acnes NCTC 737 [6]; P. acnes NCTC 737): 0.5
SMILES: CC(C)(C)c1cc(O)c(O)c(C(C)(C)C)c1 [3,5-di-t-butylcatechol]
- MBC (S. aureus ATCC 29213 [2]; Staphylococcus aureus, ATCC29213, read-out: MBC): 7.8 µg/mL (≈ 35.1 µM)
- zone of inhibition at 200 µg/disc (S. aureus ATCC 29213 [3]; ATCC29213, S. aureus ATCC 29213, unsupplemented agar, 200 μg per disc (thymoquinone 50 μg, 2,6-dimethoxy-p-benzoquinone 100 μg), read-out: DDA (diameter of zone of inhibition)): 18.8 mm
- zone of inhibition at 200 µg/disc (S. aureus ATCC 29213 [4]; S. aureus ATCC 29213, Tween 80 at 1% v/v, 200 μg per disc (thymoquinone 50 μg, 2,6-dimethoxy-p-benzoquinone 100 μg), read-out: DDA + lipid): 10.9 mm
- zone of inhibition at 200 µg/disc (S. aureus ATCC 29213 [4]; S. aureus ATCC 29213, defibrinated horse blood 5% v/v, 200 μg per disc (thymoquinone 50 μg, 2,6-dimethoxy-p-benzoquinone 100 μg), read-out: DDA + blood): 11.9 mm
- zone of inhibition at 200 µg/disc (S. aureus ATCC 29213 [4]; S. aureus ATCC 29213, sodium chloride 100 mM, 200 μg per disc (thymoquinone 50 μg, 2,6-dimethoxy-p-benzoquinone 100 μg), read-out: DDA + salt): 19.7 mm
- MBC (P. acnes NCTC 737 [6]; Cutibacterium acnes, NCTC737, P. acnes NCTC 737, read-out: MBC): 15.6 µg/mL (≈ 70.2 µM)
- zone of inhibition at 200 µg/disc (P. acnes NCTC 737 [7]; NCTC737, P. acnes NCTC 737, unsupplemented agar, 200 μg per disc (2,6-dimethoxy-p-benzoquinone 100 μg), read-out: DDA (diameter of zone of inhibition)): 35.9 mm
- zone of inhibition at 200 µg/disc (P. acnes NCTC 737 [8]; P. acnes NCTC 737, Tween 80 at 1% v/v, 200 μg per disc (2,6-dimethoxy-p-benzoquinone 100 μg), read-out: DDA + lipid): 0 mm
- zone of inhibition at 200 µg/disc (P. acnes NCTC 737 [8]; P. acnes NCTC 737, sodium chloride 100 mM, 200 μg per disc (2,6-dimethoxy-p-benzoquinone 100 μg), read-out: DDA + salt): 37.3 mm

SMILES: O=C1C=CC(=O)C(Cl)=C1 [2-chloro-p-benzoquinone]
- MIC (S. aureus ATCC 29213 [1]; Staphylococcus aureus, ATCC29213, 24 h, pH 7.2): 31.2 µg/mL (≈ 219 µM)
- MIC/MBC ratio (S. aureus ATCC 29213 [2]): 1
- MBC (S. aureus ATCC 29213 [2]; Staphylococcus aureus, ATCC29213): 31.2 µg/mL (≈ 219 µM)
- zone of inhibition at 200 µg/disc (S. aureus ATCC 29213 [3]; ATCC29213, read-out: DDA (diameter of zone of inhibition)): 25.3 mm
- zone of inhibition at 200 µg/disc (S. aureus ATCC 29213 [4]; read-out: DDA + blood): 17.2 mm
- zone of inhibition at 200 µg/disc (S. aureus ATCC 29213 [4]; read-out: DDA + lipid): 22.8 mm
- zone of inhibition at 200 µg/disc (S. aureus ATCC 29213 [4]; read-out: DDA + salt): 26.2 mm
- activity against P. acnes NCTC 737 (in words) (P. acnes NCTC 737 [5]): strongly so
- MIC (P. acnes NCTC 737 [5]; Cutibacterium acnes, NCTC737, 72 h, pH 6): 62.5 µg/mL (≈ 438 µM)
- MBC (P. acnes NCTC 737 [6]; Cutibacterium acnes, NCTC737): 125 µg/mL (≈ 877 µM)
- MIC/MBC ratio (P. acnes NCTC 737 [6]; P. acnes NCTC 737): 0.5
- zone of inhibition at 200 µg/disc (P. acnes NCTC 737 [7]; NCTC737, read-out: DDA (diameter of zone of inhibition)): 25.8 mm
- zone of inhibition at 200 µg/disc (P. acnes NCTC 737 [8]; read-out: DDA + lipid): 31.4 mm
- zone of inhibition at 200 µg/disc (P. acnes NCTC 737 [8]; read-out: DDA + salt): 31.7 mm
- effect of lipid on antimicrobial activity (P. acnes NCTC 737 [8]; P. acnes NCTC 737, activity increases in the presence of lipid): potentiated
